Test results: US12637427B2, “ALDH-2 inhibitor compounds and methods of use” (Amygdala Neurosciences, Inc., priority 2022, dated 2026)

Experiments:
[1] = target: T1, recombinant human ALDH-1 (Homo sapiens, UniProt P00352); experiment: ALDH-1 inhibition assay; format: biochemical; settings: 60 min pre-incubation; 10 μM = highest concentration tested; read-out: Enzymatic Assays IC50 ALDH-1
T1 sequence (P00352 1-501): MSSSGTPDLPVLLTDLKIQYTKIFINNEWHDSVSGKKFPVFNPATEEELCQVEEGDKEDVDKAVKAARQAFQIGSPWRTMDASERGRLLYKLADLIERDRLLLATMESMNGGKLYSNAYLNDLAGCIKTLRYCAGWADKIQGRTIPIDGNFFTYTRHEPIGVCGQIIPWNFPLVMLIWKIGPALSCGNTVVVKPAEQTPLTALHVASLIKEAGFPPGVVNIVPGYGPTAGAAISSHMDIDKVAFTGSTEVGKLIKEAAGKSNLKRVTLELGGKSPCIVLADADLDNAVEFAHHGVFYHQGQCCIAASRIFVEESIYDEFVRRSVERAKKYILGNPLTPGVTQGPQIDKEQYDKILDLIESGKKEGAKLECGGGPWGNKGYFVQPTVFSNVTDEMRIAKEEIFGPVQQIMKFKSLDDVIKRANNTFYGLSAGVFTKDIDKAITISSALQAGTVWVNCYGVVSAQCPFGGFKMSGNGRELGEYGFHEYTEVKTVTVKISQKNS
Experimental: B. ALDH-1 inhibition assay: The ALDH-1 reaction mixture used in the assay contained 100 μM formaldehyde, 2.5 mM NAD+, 20 mM NaCl, 10 mM MgCl2, 1 mM dithiothreitol (DTT; reducing agent), and 50 nM recombinant human ALDH-1 in 50 mM Hepes buffer, pH 7.5 in a final volume of 10 μL using 384-well Corning 3820 plates. After 60 min of pre-incubation of the test ALDH-2 inhibitor compound with ALDH-1, the reaction was started by adding NAD+ and formaldehyde and the assay reaction mixture was allowed to proceed for 60 minutes. Activity of the ALDH-1 enzyme was determined by monitoring NADH formation using Perkin-Elmer Envision Reader with excitation and emission wavelengths set at 340 and 460 nm, respectively.

[2] = target: T2, MAO-A (Homo sapiens, UniProt P21397); experiment: MAO-A inhibition assay; format: biochemical; settings: 20 min pre-incubation; 10 μM = highest concentration tested; read-out: Enzymatic Assays IC50 MAO-A
T2 sequence (P21397 1-527): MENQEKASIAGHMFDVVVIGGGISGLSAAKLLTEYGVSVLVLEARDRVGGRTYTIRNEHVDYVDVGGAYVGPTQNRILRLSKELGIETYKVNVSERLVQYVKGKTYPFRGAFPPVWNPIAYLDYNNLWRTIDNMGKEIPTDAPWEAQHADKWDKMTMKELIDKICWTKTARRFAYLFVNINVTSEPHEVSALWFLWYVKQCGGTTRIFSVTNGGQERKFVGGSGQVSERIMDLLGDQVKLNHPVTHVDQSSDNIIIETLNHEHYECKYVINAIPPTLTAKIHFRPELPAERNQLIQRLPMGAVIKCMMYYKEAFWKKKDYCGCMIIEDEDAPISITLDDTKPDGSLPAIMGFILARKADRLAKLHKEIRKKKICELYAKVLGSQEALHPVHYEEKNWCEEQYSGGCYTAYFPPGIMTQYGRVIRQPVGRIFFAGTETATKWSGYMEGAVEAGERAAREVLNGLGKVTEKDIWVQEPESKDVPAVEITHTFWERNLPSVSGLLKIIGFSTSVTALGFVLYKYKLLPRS
Experimental: (§1) D. MAO-A and MAO-B inhibition assays: MAO assays included luminogenic MAO substrate, reaction buffers, Luciferin Detection, and a reconstitution buffer with esterase. The MAO reaction mixture used in the assay included microsome contained MAO-A (2 μg) or MAO-B (10 μg), 160 μM substrate for MAO-A or 16 μM substrate for MAO-B, MAO-A buffer (100 mM Hepes buffer, pH 7.5, 5% glycerol) or MAO-B buffer (100 mM Hepes, pH 7.5, 5% glycerol, 10% dimethyl sulfoxide) in a final volume of 30 μL. After 20 minutes of pre-incubation of the MAO-A or MAO-B enzyme with the test ALDH-2 inhibitor compound, the reaction was initiated by adding enzyme substrate and the […] reaction was allowed to proceed for 60 minutes. Reconstituted Luciferin Detection Reagent (30 μL) was then added is added to simultaneously stop the MAO reaction and convert the methyl ester derivative to luciferin and produce light. The amount of light produced is directly proportional to the activity of MAO. The mixtures were further incubated for 20 minutes and activity of the enzyme was determined using Perkin-Elmer Envision Reader.

[3] = target: T3, recombinant human ALDH-2 (Homo sapiens, UniProt P05091); experiment: ALDH-2 inhibition assay; format: biochemical; settings: 60 min pre-incubation; 10 μM = highest concentration tested; read-out: Enzymatic Assays IC50 ALDH2
T3 sequence (P05091 18-517): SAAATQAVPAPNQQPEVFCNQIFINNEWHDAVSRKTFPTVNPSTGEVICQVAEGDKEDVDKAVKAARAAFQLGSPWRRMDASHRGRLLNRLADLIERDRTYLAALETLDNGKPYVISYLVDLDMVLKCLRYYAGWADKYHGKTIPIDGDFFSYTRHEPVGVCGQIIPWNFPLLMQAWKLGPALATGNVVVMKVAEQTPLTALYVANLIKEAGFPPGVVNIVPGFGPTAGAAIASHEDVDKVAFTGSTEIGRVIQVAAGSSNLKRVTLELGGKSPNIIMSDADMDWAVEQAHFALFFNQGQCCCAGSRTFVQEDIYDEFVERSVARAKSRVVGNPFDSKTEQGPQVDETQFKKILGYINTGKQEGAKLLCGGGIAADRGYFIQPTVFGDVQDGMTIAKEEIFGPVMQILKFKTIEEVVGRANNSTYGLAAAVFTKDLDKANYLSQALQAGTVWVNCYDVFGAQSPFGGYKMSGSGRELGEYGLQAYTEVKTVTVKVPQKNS
Experimental: A. ALDH-2 inhibition assay: The ALDH-2 reaction mixture used in the assay contained 125 μM formaldehyde, 75 μM NAD+, 20 mM NaCl, 10 mM MgCl2, and 20 nM recombinant human ALDH-2 in 50 mM Hepes buffer, pH 7.5 in a final volume of 10 μL using 384-well Corning 3820 plates. After 60 min of pre-incubation of the test ALDH-2 inhibitor compound with ALDH-2, the reaction was started by adding NAD+ and formaldehyde and the assay reaction mixture was allowed to proceed for 60 minutes. Activity of the ALDH-2 enzyme was determined by monitoring NADH formation using Perkin-Elmer Envision Reader with excitation and emission wavelengths set at 340 and 460 nm, respectively.

[4] = test system: HepaRG spheroids; experiment: HepaRG 3D spheroid assay; format: cell-based; settings: minimum effective concentration crossing vehicle control threshold of cell health marker; 100 μM = highest concentration tested
Excerpt: See e.g., Walker et al., “The evolution of strategies to minimise the risk of human drug-induced liver injury (DILI) in drug discovery and development,” (2020) Archives of Toxicology, Vol. 94: 2559-2585, which is hereby incorporated by reference herein in its entirety. […] In applying the HepaRG spheroid assay analysis to determining the hepatoxic liability of ALDH-2 inhibitor compounds, consideration is made of the binding to plasma protein and the limitations to CNS penetration due to the blood-brain barrier.
E. HepaRG® 3D spheroid assay: The HepaRG 3D spheroid assay is described in Walker et al., “The evolution of strategies to minimise the risk of human drug-induced liver injury (DILI) in drug discovery and development,” (2020) Archives of Toxicology, Vol. 94: 2559-2585. Briefly, HepaRG® cells were seeded into ultra-low adhesion 96-well black walled clear bottomed spheroid microplates. […] At the end of the incubation period, the spheroids were loaded with the relevant dye/antibody for each cell health marker (spheroid count, spheroid size, DNA structure, mitochondrial mass, mitochondrial membrane potential, oxidative stress, glutathione content, and cellular ATP). The plates were then scanned using an automated fluorescent cellular imager, ArrayScan® (Thermo Scientific Cellomics).

[5] = target: T4, MAO-B (Homo sapiens, UniProt P27338); experiment: MAO-B inhibition assay; format: biochemical; settings: 20 min pre-incubation; 10 μM = highest concentration tested; read-out: Enzymatic Assays IC50 MAO-B
T4 sequence (P27338 1-520): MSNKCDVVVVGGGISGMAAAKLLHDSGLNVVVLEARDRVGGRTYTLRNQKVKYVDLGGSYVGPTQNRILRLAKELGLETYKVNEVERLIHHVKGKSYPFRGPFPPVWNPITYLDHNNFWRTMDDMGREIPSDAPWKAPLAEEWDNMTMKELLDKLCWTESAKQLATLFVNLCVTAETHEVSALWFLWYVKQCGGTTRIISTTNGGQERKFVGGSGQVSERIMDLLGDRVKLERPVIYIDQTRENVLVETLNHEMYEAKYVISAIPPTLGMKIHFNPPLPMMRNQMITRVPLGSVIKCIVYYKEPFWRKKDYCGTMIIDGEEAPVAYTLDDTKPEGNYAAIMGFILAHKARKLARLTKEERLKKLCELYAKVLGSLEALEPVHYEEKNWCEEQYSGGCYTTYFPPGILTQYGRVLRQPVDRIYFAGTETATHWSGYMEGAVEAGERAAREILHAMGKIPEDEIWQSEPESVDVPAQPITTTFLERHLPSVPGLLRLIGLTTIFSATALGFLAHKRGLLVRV
Experimental: as §1

[6] = O'Malley et al. 2021; cited from earlier work
[7] = target: T5, recombinant human ALDH-3 (Homo sapiens, UniProt P30838); experiment: ALDH-3 inhibition assay; format: biochemical; settings: 60 min pre-incubation; 10 μM = highest concentration tested; read-out: Enzymatic Assays IC50 ALDH-3
T5 sequence (P30838 1-453): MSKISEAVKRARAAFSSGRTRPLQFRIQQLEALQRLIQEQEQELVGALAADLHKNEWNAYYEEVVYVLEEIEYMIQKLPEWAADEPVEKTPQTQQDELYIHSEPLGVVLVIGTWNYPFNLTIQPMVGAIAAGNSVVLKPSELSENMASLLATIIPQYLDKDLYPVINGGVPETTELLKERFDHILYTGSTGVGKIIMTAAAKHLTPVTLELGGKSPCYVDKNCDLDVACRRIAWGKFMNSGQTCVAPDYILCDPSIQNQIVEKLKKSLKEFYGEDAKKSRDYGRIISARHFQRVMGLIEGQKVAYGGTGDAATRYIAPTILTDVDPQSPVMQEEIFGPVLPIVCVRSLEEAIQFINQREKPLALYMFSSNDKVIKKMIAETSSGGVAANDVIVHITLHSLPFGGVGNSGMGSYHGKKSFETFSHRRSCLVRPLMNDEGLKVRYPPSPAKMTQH
Experimental: ALDH-3 inhibition assay: The ALDH-3 reaction mixture used in the assay contained 200 μM benzaldehyde, 2.5 mM NAD+, 20 mM NaCl, 10 mM MgCl2, and 10 nM recombinant human ALDH-3 in 50 mM Hepes buffer, pH 7.5 in a final volume of 10 μL using 384-well Corning 3820 plates. After 60 min of pre-incubation of the test ALDH-2 inhibitor compound with ALDH-3, the reaction was started by adding NAD+ and benzaldehyde and the assay reaction mixture was allowed to proceed for 60 minutes. Activity of the ALDH-3 enzyme was determined by monitoring NADH formation using Perkin-Elmer Envision Reader with excitation and emission wavelengths set at 340 and 460 nm, respectively.

Row | IC50 [1] [µM] | IC50 [2] [µM] | IC50 [3] [µM] | HepaRG 3D Spheroid MEC [4] | IC50 [5] [µM] | IC50 [7] [µM] | Structure (SMILES) | hepatotoxicity in humans [6]
1 | > 10 | > 10 | 0.007 | 5.06 µM | > 10 |  | O=C(NCc1ccc(-c2cccc(=O)[nH]2)nc1)c1c(Cl)cccc1Cl [(1j), 2,6-Dichloro-N-((6′-oxo-1′,6′-dihydro-[2,2′-bipyridin]-5-yl)methyl)benzamide] | 
2 | > 10 | > 10 | 0.027 | No Effect | > 10 |  | O=C(NCc1ccc(-c2[nH]c(=O)ccc2F)cc1)c1c(Cl)cccc1Cl [Compound (1d), 2,6-dichloro-N-(4-(3-fluoro-6-oxo-1,6-dihydropyridin-2-yl)benzyl)benzamide] | 
3 |  |  |  |  |  |  | O=C(NCc1ccc(-c2cc[nH]c(=O)c2)cc1)c1c(Cl)cccc1Cl [2,6-dichloro-N-[4-(2-oxo-1,2-dihydro-pyridin-4-yl)-benzyl]-benzamide] | high levels of hepatotoxicity
4 | > 10 | > 10 | 0.1 | 53.9 µM | > 10 |  | Cc1nccc(Cl)c1C(=O)NCc1ccc(-c2[nH]c(=O)ccc2F)cc1 [(1h), 4-Chloro-N-(4-(3-fluoro-6-oxo-1,6-dihydropyridin-2-yl)benzyl)-2-methylnicotinamide] | 
5 | > 10 | > 10 | 0.98 |  | > 10 | > 10 | Cc1nccc(Cl)c1C(=O)NCc1ccc(-c2cccc(=O)[nH]2)nc1 [(1m), 4-Chloro-2-methyl-N-((6′-oxo-1′,6′-dihydro-[2,2′-bipyridin]-5-yl)methyl)nicotinamide] | 
6 | > 10 | > 10 | 0.329 |  | > 10 | > 10 | O=C(NCc1ccc(-c2[nH]c(=O)ccc2F)cc1)c1ccccc1Cl [Compound (1f), 2-Chloro-N-(4-(3-fluoro-6-oxo-1,6-dihydropyridin-2-yl)benzyl)benzamide] | 
7 | > 10 | > 10 | 0.004 | 15.3 µM | > 10 |  | O=C(NCc1ccc(-c2[nH]c(=O)ccc2F)nc1)c1c(Cl)cccc1Cl [(1i), 2,6-dichloro-N-((3′-fluoro-6′-oxo-1′,6′-dihydro-[2,2′-bipyridin]-5-yl)methyl)benzamide] | 
8 | > 10 | > 10 | 0.009 | 50.4 µM | > 10 |  | Cc1cccc(Cl)c1C(=O)NCc1ccc(-c2[nH]c(=O)ccc2F)cc1 [Compound (1e), 2-Chloro-N-(4-(3-fluoro-6-oxo-1,6-dihydropyridin-2-yl)benzyl)-6-methylbenzamide] | 
9 | > 10 | > 10 | 0.031 | 7.48 µM | > 10 |  | Cc1cccc(Cl)c1C(=O)NCc1cnc(-c2cccc(=O)[nH]2)nc1 [(1n), 2-Chloro-6-methyl-N-((2-(6-oxo-1,6-dihydropyridin-2-yl)pyrimidin-5-yl)methyl)benzamide] | 
